In brackets after ≈: the same amount, converted by molar mass. Activity calls are given as the source filed them. No cut-off for these calls is given here.
Legend:
Staphylococcus aureus [1] = assay: Antibacterial activity against methicillin-sensitive Staphylococcus aureus ATCC 29213 measured after 24 hrs by turbidimetric assay; type: functional
Staphylococcus aureus [2] = assay: Antibacterial activity against methicillin-resistant Staphylococcus aureus Mu 50 measured after 24 hrs by turbidimetric assay; type: functional
Escherichia coli = assay: Antibacterial activity against Escherichia coli ATCC 25922 measured after 24 hrs by turbidimetric assay; type: functional
Staphylococcus aureus [3] = assay: Resistance development in methicillin-resistant Staphylococcus aureus Mu 50 assessed as fold change in MIC after and before 6 passages by broth dilution method; type: functional
Staphylococcus aureus [4] = assay: Resistance development in methicillin-resistant Staphylococcus aureus Mu 50 assessed as MIC after 9 passages by broth dilution method; type: functional
[5] = biological target: T1, MecA (Staphylococcus aureus) (UniProt Q7DHH4); assay: Inhibition of PBP2a in methicillin-resistant Staphylococcus aureus Mu 50 assessed as disruption of bacterial cell wall integrity by measuring release of intracellular contents at 64 ug/ml measured after 12 hrs by transmission electron microscopy; type: cell-based; conditions: dose 64.0 µg/ml
T1 sequence (whole entry): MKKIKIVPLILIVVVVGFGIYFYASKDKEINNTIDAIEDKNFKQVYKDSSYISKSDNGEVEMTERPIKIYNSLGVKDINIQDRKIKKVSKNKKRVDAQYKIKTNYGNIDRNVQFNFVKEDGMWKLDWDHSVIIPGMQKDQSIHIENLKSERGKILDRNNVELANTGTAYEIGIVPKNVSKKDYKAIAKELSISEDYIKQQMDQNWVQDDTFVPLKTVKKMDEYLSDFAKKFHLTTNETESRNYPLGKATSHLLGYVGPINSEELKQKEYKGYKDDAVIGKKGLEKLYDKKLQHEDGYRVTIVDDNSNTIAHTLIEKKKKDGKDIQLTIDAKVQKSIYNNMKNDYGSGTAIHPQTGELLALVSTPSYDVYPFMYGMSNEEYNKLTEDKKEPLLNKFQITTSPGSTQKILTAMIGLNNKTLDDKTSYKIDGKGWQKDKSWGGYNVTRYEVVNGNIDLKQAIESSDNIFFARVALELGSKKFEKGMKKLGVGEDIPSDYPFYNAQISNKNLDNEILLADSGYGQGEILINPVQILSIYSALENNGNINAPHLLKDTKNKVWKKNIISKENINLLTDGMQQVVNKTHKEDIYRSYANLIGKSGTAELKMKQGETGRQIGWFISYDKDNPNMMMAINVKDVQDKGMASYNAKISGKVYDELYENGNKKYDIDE

Staphylococcus aureus [6] = assay: Antibacterial activity against methicillin-resistant Staphylococcus aureus Mu 50 at 4 to 32 ug/ml measured at 1 hr interval for 24 hrs; type: functional, organism-based; conditions: dose 4-32 µg/ml
Staphylococcus aureus [7] = assay: Antibacterial activity against methicillin-sensitive Staphylococcus aureus ATCC 29213 at 4 to 32 ug/ml measured at 1 hr interval for 24 hrs; type: functional, organism-based; conditions: dose 4-32 µg/ml
Staphylococcus aureus [8] = assay: Bactericidal activity against methicillin-resistant Staphylococcus aureus Mu 50 assessed as reduction in colony formation at 8 to 32 ug/ml measured after 3 hrs by time-kill assay; type: functional, organism-based; conditions: dose 8-32 µg/ml
Staphylococcus aureus [9] = assay: Bactericidal activity against methicillin-resistant Staphylococcus aureus Mu 50 assessed as reduction in colony formation measured after 2 to 24 hrs by time-kill assay; type: functional, organism-based; conditions: dose 8-32 µg/ml, time 2-24 hrs
Staphylococcus aureus [10] = assay: Synergistic antibacterial activity against methicillin-resistant Staphylococcus aureus Mu 50 at 16 to 32 ug/ml measured at 1 hr interval for 24 hrs in presence of oxacillin; type: functional, organism-based; conditions: dose 16-32 µg/ml
Staphylococcus aureus [11] = assay: Synergistic antibacterial activity against methicillin-resistant Staphylococcus aureus Mu 50 at 64 to 128 ug/ml measured at 1 hr interval for 24 hrs in presence of oxacillin; type: functional, organism-based; conditions: dose 64-128 µg/ml
[12] = Cytotoxicity against human intestinal epithelial cells assessed as reduction in cell viability at 64 ug/ml measured after 24 hrs by CCK-8 assay; type: toxicity, cell-based; conditions: dose 64 µg/ml
[13] = Cytotoxicity against mouse BEND3 cells assessed as reduction in cell viability at 64 ug/ml measured after 24 hrs by CCK-8 assay; type: toxicity, cell-based; conditions: bend3, 24 h, dose 64 µg/ml
[14] = biological target: T1, MecA (Staphylococcus aureus); assay: Inhibition of PBP2a in methicillin-resistant Staphylococcus aureus Mu 50 assessed as blurred cell wall boundaries at 16 ug/ml measured after 12 hrs by transmission electron microscopy; conditions: dose 16.0 µg/ml
[15] = biological target: T1, MecA (Staphylococcus aureus); assay: Inhibition of PBP2a in methicillin-resistant Staphylococcus aureus Mu 50 assessed as abnormal cell division at 16 ug/ml measured after 12 hrs by transmission electron microscopy; conditions: dose 16.0 µg/ml

Row | Structure (SMILES) | MIC (Staphylococcus aureus [1]) [µg/mL] | MIC (Staphylococcus aureus [2]) [µg/mL] | MIC (Escherichia coli) [µg/mL] | also measured
1 | Nc1ncnc2c1c(C#Cc1ccc3ccccc3c1)cn2[C@@H]1O[C@H](CSCc2cccc(C(=O)O)c2)[C@@H](O)[C@H]1O | > 128 | 32 (≈ 56.5 µM) | > 128 | 
2 | CCO/N=C(\C(=O)N[C@@H]1C(=O)N2C(C(=O)[O-])=C(Sc3nc(-c4cc[n+](C)cc4)cs3)CS[C@H]12)c1nsc(NP(=O)(O)O)n1 [CEFTAROLINE FOSAMIL] |  | 32 (≈ 46.7 µM) |  | fold change (FC) (Staphylococcus aureus [3]): 2; MIC (Staphylococcus aureus [4]): 128 µg/mL (≈ 187 µM)
3 | Cc1onc(-c2ccccc2)c1C(=O)N[C@@H]1C(=O)N2[C@@H]1SC(C)(C)[C@@H]2C(=O)O [OXACILLIN] |  | 64 (≈ 159 µM) |  | inhibition [5]: Active
4 | Nc1ncnc2c1c(C#Cc1cccc(F)c1)cn2[C@@H]1O[C@H](CSCc2cccc(C(=O)O)c2)[C@@H](O)[C@H]1O | > 128 | > 128 | > 128 | 
5 | Nc1ncnc2c1ncn2[C@@H]1O[C@H](CSCc2cncc(C(=O)O)n2)[C@@H](O)[C@H]1O | > 128 | > 128 | > 128 | 
6 | Nc1ncnc2c1c(C#Cc1ccc3sccc3c1)cn2[C@@H]1O[C@H](CSCc2cccc(C(=O)O)c2)[C@@H](O)[C@H]1O | > 128 | 16 (≈ 27.9 µM) | > 128 | Activity (Staphylococcus aureus [6]): Active; Significant Inhibition Observed; Activity (Staphylococcus aureus [7]): inactive; Activity (Staphylococcus aureus [8]): Active; Significant Reduction Observed; Activity (Staphylococcus aureus [9]): Dose-dependent-effect; Activity (Staphylococcus aureus [10]): Active; Enhanced The Inhibitory Effect Of Oxacillin; Activity (Staphylococcus aureus [11]): Not active; Decreased The Activity Of Oxacillin; MIC (Staphylococcus aureus [4]): 64 µg/mL (≈ 112 µM); Activity [12]: Non-toxic; Activity [13]: Non-toxic; inhibition [14]: Active; Significantly Inhibits The Cross-Linking Of Peptidoglycan Substrates By Pbp2A; inhibition [15]: Active; Significantly Inhibits The Cross-Linking Of Peptidoglycan Substrates By Pbp2A
7 | Nc1ncnc2c1c(C#Cc1cccnc1)cn2[C@@H]1O[C@H](CSCc2cccc(C(=O)O)c2)[C@@H](O)[C@H]1O | > 128 | > 128 | > 128 | 
8 | Nc1ncnc2c1c(C#Cc1cccc([N+](=O)[O-])c1)cn2[C@@H]1O[C@H](CSCc2cccc(C(=O)O)c2)[C@@H](O)[C@H]1O | > 128 | > 128 | > 128 | 
9 | Nc1ncnc2c1ncn2[C@@H]1O[C@H](CSCc2cc(C(=O)O)no2)[C@@H](O)[C@H]1O | > 128 | > 128 | > 128 | 
10 | Nc1ncnc2c1ncn2[C@@H]1O[C@H](CSCc2cccc(C(=O)O)n2)[C@@H](O)[C@H]1O | > 128 | > 128 | > 128 | 
11 | Nc1ncnc2c1ncn2[C@@H]1O[C@H](CSCc2cccc(C(=O)O)c2)[C@@H](O)[C@H]1O | > 128 | > 128 | > 128 | 
12 | N#Cc1cccc(CSC[C@H]2O[C@@H](n3cnc4c(N)ncnc43)[C@H](O)[C@@H]2O)c1 | > 128 | > 128 | > 128 | 
13 | Nc1ncnc2c1c(C#Cc1ccccc1)cn2[C@@H]1O[C@H](CSCc2cccc(C(=O)O)c2)[C@@H](O)[C@H]1O | > 128 | > 128 | > 128 | 

From ChEMBL document CHEMBL6109093, “Designing novel nucleoside inhibitors targeting the allosteric site of PBP2a: A strategic approach to overcome resistance in MRSA” (Bioorg Med Chem, 2025)
